Laboratory results: US20150133495A1 (ViroCura Therapeutics, Inc., priority 2013, published 2015)

Each compound was assayed on HCV replicon (HCV1b sub-genomic, Huh-7 cells) (assay: HCV replicon RNA replication assay (luciferase reporter)). Settings: Hepatitis C virus, Huh-7.
Assay type: cell-based, Hepatitis C virus (CON-1 genotype b)
Description: All curve fitting was conducted using non-linear regression analyses from PRISM (version 4.0c, GraphPad Inc.) and the determination of Rmax and EC50 or IC50 parameters were obtained from sigmoidal dose-response phase (variable slope) equation.
The replicon HCV1b is generated based on the wild-type sequence CON-1 genotype b (GenBank accession number AJ238799; Lohmann et al., Science 1999, 285: 110-113) and expressed the sub-genomic fragment HCV NS3-NS4A-NS4B-NS5A-NS5B. The replicon contain a hybrid HCV-IRES 5′UTR, a modified luciferase reporter gene expressed as a luciferase-Ubi-neomycin phosphotransferase gene fusion and an EMCV IRES NS3-NS5B subgenomic fragment with its 3′UTR. To generate cell lines harboring the replicon, Huh-7 cells are electroporated with purified in vitro HCV1b RNA transcripts and stable cell lines are selected in the presence of G418. Stable replicon cell lines are established as described in Science 1999, 285: 110-113. The amount of luciferase expressed by selected cells directly correlates with the level of HCV RNA replication, as measured by real-time PCR.
Stable HCV replicon cells are maintained in Dulbecco's Modified Eagle Medium (DMEM) supplemented with 10% FBS and 0.5 mg/ml G418. During the assay, DMEM supplemented with 10% FBS, containing 0.5% DMSO and lacking G418 are used as assay medium. For the assay, cell stocks are trypsinized and diluted in assay medium to distribute 7,500 cells in 96-well plates. The plates are then incubated at 37° until compound addition. Serial dilutions of the test compound are prepared in 100% DMSO, before dilution in assay medium to a final DMSO concentration of 0.5% to generate a concentration dose response curves. A fixed volume from each well of the compound dilution plate is transferred to a corresponding well of the cell culture plate. The cell culture plate is incubated at 37° C. with 5% CO2 for 72 hours. Following the 72 h incubation period, the medium is aspirated from the 96-well assay plate and a volume of 50_l of lysis buffer 100 mM Tris acetate, 20 mM Mg acetate, 2 mM EGTA, 3.6 mM ATP, 1% Brij 58, 0.7%_-mercaptoethanol containing 45_g/ml luciferine (pH 7.9) is added to each well. The luciferase activity is determined using the luciferase substrate and the luminescence is detected on a MicroBeta JET 1450 LSC & Luminescence Counter (Perkin Elmer) instrument. The luminescence in each well of the culture plate is a measure of the amount of HCV RNA replication in the presence of various concentrations of inhibitor. The % inhibition is calculated for each inhibitor concentration and used to determine the concentration that results in 50% inhibition of HCV replication (EC50).

Row | SMILES | EC50 [nM]
1 | Cc1noc(C)c1C(=O)O/N=C(\N)Cc1ccc(-c2csnn2)cc1 [Compound 63, reference compound] | 500 to 1000
2 | Cc1noc(-c2ccc(Cl)cc2)c1C(=O)O/N=C(\N)c1ccc(Cl)cc1 [Compound 60, reference compound] | 500 to 1000

Same assay, conditions: Hepatitis C virus, Huh-7, 72 h, read-out: EC50 (Range)

Row | SMILES | EC50 [nM]
3 | N/C(=N\OC(=O)c1cccc2ccccc12)c1ccc2c(c1)OCO2 [Example 33, (Z)—N′-((1-naphthoyl)oxy)benzo[d][1,3]dioxole-5-carboximidamide] | 500 to 1000
4 | N/C(=N\OC(=O)c1conc1-c1ccccc1Cl)c1ccc2c(c1)OCO2 [Example 1, (Z)—N′-((3-(2-chlorophenyl)isoxazole-4-carbonyl)oxy)benzo[d][1,3]dioxole-5-carboximidamide] | 1000 to 10000
5 | CCCCN/C(=N\OC(=O)c1c(-c2ccccc2Cl)noc1C)c1ccc2c(c1)OCO2 [Example 20, (Z)—N-butyl-N′-((3-(2-chlorophenyl)-5-methylisoxazole-4-carbonyl)oxy)benzo[d][1,3]dioxole-5-carboximidamide] | < 500
6 | Cc1onc(-c2ccccc2Cl)c1C(=O)O/N=C(\N)c1ccc(OCc2ccc(Cl)nc2)cc1 [Example 49, (Z)—N′-((3-(2-chlorophenyl)-5-methylisoxazole-4-carbonyl)oxy)-4-((6-chloropyridin-3-yl)methoxy)benzimidamide] | < 500
7 | N/C(=N\OC(=O)c1c(-c2ccccc2Cl)noc1C1CC1)c1ccc2c(c1)OCO2 [Example 11, (Z)—N′-((3-(2-chlorophenyl)-5-cyclopropylisoxazole-4-carbonyl)oxy)benzo[d][1,3]dioxole-5-carboximidamide] | < 500
8 | COc1ccccc1/C(N)=N/OC(=O)c1c(C)cccc1C [Example 3, (Z)—N′-((2,6-dimethylbenzoyl)oxy)-2-methoxybenzimidamide] | < 500
9 | N/C(=N\OC(=O)c1c(C(F)(F)F)cccc1C(F)(F)F)c1ccc2c(c1)OCO2 [Example 4, (Z)—N′-((2,6-bis(trifluoromethyl)benzoyl)oxy)benzo[d][1,3]dioxole-5-carboximidamide] | 1000 to 10000
10 | Cc1cccc(C)c1C(=O)O/N=C(\N)c1ccc(OCc2ccc(Cl)cc2)cc1 [Example 40, (Z)-4-((4-chlorobenzyl)oxy)-N′-((2,6-dimethylbenzoyl)oxy)benzimidamide] | < 500
11 | Cc1cccc(C)c1C(=O)O/N=C(\N)c1ccccc1OCc1ccc(F)cc1 [Example 41, (Z)—N′-((2,6-dimethylbenzoyl)oxy)-2-((4-fluorobenzyl)oxy)benzimidamide] | < 500
12 | N/C(=N\OC(=O)c1c(-c2ccccc2Cl)noc1Cc1ccccc1)c1ccc2c(c1)OCO2 [Example 13, (Z)—N′-((5-benzyl-3-(2-chlorophenyl)isoxazole-4-carbonyl)oxy)benzo[d][1,3]dioxole-5-carboximidamide] | < 500
13 | Cc1cccc(C)c1C(=O)O/N=C(\N)CCc1ccc(Br)cc1 [Example 8, (Z)-3-(4-bromophenyl)-N′-((2,6-dimethylbenzoyl)oxy)propanimidamide] | < 500
14 | Cc1onc(-c2ccccc2Cl)c1C(=O)O/N=C(\N)c1ccc(-c2csnn2)cc1 [Example 36, (Z)—N′-((3-(2-chlorophenyl)-5-methylisoxazole-4-carbonyl)oxy)-4-(1,2,3-thiadiazol-4-yl)benzimidamide] | 500 to 1000
15 | COCc1onc(-c2ccccc2Cl)c1C(=O)O/N=C(\N)c1ccc2c(c1)OCO2 [Example 16, (Z)—N′-((3-(2-chlorophenyl)-5-(methoxymethyl)isoxazole-4-carbonyl)oxy)benzo[d][1,3]dioxole-5-carboximidamide] | 500 to 1000
16 | Cc1onc(-c2ccccc2Cl)c1C(=O)O/N=C(\NCc1cccnc1)c1ccc2c(c1)OCO2 [Example 21, (Z)—N′-((3-(2-chlorophenyl)-5-methylisoxazole-4-carbonyl)oxy)-N-(pyridin-3-ylmethyl)benzo[d][1,3]dioxole-5-carboximidamide] | 500 to 1000
17 | CN/C(=N\OC(=O)c1c(-c2ccccc2Cl)noc1C)c1ccc2c(c1)OCO2 [Example 14, (Z)—N′-((3-(2-chlorophenyl)-5-methylisoxazole-4-carbonyl)oxy)-N-methylbenzo[d][1,3]dioxole-5-carboximidamide] | < 500
